Consider four compounds from patent US20250051362A1, “SUBSTITUTED FUSED HETEROCYCLIC COMPOUND, AND PREPARATION METHOD THEREFOR AND USE THEREOF” (Shanghai Annova Biotechnology Co., Ltd., priority 2021, published 2025).

What is called IC50 is the concentration that inhibits the measured activity by half.

Experiment [1] has as its system human colon cancer LoVo cells. Description: Cell proliferation inhibition assay (CellTiter-Glo). The experiment is classed as cell-based. Particulars: LoVo cells, 96 hours incubation; for Emax: Homo sapiens, read-out: Max Inhibition. From the text:
Experimental method: A CellTiter-Glo cell viability assay kit was used to test the inhibitory effect of the compounds on the in vitro proliferation of human colon cancer LoVo cells.
Experimental materials: LoVo cells (ATCC, Cat. No. CCL-29); F-12K medium (Invitrogen, Cat. No. 21127-022); fetal bovine serum (Biological Industries, Cat. No. 04-002-1A); GlutaMAX (Gibco, Cat. No. 35050-061); 0.25% trypsin-EDTA (Invitrogen, Cat. No. 25200-072); CellTiter-Glo kit (Promega, Cat. No. G7558).
Experimental procedure: (1) F-12K medium, fetal bovine serum and GlutaMAX were formulated into a complete medium for culturing LoVo cells; (2) well-grown LoVo cells were taken, digested with trypsin and transferred to a centrifuge tube, and centrifuged; the supernatant was discarded, and cells were resuspended by adding a fresh medium and counted by a Vi-CELL XR cell counter; the density of the cell suspension was adjusted to 25,000 to 30,000 cells/mL, and the cell suspension was added at 100 μL/well in a 96-well cell culture plate, while a blank control group was set up with no cells added, and the cell culture plate was incubated in a carbon dioxide incubator overnight; (3) a DMSO solution of the compound to be tested was dispensed into the above 96-well cell culture plate using an HP D300 ultra-micro sampler, with 0.5 μL of the solution per well and 10 concentrations for each compound (3× dilution), while a DMSO control group with no compound added was set up, and the plate was continued to be incubated in a carbon dioxide incubator for 96 hours; (4) the cell culture plate was taken out and equilibrated to room temperature, with 100 μL of a CellTiter-Glo reagent added to each well, and then the plate was kept away from light, shaken for 10 minutes and then incubated for 10 minutes; (5) the cell culture plate was put into EnSpire for plate reading, and the luminescence value RLU was recorded.
Data processing: (1) The inhibition rate was calculated from the luminescence values: “RLUDMSO” is the luminescence value of the DMSO control group without compound, “RLUblank” is the luminescence value of the blank control group without cells, and “RLUcompound” is the luminescence value of the compound test group, and the inhibition rate=[1−(RLUcompound−RLUblank)/(RLUDMSO−RLUblank)]×100%; (2) with curve fitting using the Excel add-on XLFit, the IC50 value was calculated.
(ATP-based viability assays read luminescence as a measure of living cells.)

A further experiment addresses ATR kinase (Homo sapiens (Human), UniProt Q13535). Description: In vitro ATR kinase inhibition assay (Mobility Shift Assay, Caliper EZ Reader). Particulars: ATP concentration of Km; 4 h at 28° C. It is filed as biochemical. The protocol: Experimental method: The inhibitory activity of the compounds on ATR kinase in vitro was determined by Mobility Shift Assay at an ATP concentration of Km using Caliper EZ Reader as a mobility shift assaying technology based on microfluidic chip technology.
Experimental procedure: (1) The compounds to be tested were dissolved in DMSO and serially diluted 4× for a total of 10 concentrations; (2) 0.06 μL of the compounds at different concentrations were pipetted into a 384-well plate using an Echo pipetting system; (3) a 2× kinase solution with a concentration of 10 nM ATR kinase was prepared from the ATR kinase and the 1× kinase buffer; and a 2× substrate solution with a concentration of 6 μM 5-FAM-AK-17 and 4 μM ATP was prepared from 5-FAM-AK-17, ATP and the 1× kinase buffer; (4) 10 μL of the 2× kinase solution was added into the 384-well plate and incubated for 10 min at room temperature; 10 μL of the 2× substrate solution was then added and incubated for 4 h at 28° C.; (5) 30 μL of the termination buffer was added to terminate the reaction, and then the 384-well plate was put into the Caliper EZ Reader to read the conversion rate data.

ATR kinase, sequence (Q13535 whole entry): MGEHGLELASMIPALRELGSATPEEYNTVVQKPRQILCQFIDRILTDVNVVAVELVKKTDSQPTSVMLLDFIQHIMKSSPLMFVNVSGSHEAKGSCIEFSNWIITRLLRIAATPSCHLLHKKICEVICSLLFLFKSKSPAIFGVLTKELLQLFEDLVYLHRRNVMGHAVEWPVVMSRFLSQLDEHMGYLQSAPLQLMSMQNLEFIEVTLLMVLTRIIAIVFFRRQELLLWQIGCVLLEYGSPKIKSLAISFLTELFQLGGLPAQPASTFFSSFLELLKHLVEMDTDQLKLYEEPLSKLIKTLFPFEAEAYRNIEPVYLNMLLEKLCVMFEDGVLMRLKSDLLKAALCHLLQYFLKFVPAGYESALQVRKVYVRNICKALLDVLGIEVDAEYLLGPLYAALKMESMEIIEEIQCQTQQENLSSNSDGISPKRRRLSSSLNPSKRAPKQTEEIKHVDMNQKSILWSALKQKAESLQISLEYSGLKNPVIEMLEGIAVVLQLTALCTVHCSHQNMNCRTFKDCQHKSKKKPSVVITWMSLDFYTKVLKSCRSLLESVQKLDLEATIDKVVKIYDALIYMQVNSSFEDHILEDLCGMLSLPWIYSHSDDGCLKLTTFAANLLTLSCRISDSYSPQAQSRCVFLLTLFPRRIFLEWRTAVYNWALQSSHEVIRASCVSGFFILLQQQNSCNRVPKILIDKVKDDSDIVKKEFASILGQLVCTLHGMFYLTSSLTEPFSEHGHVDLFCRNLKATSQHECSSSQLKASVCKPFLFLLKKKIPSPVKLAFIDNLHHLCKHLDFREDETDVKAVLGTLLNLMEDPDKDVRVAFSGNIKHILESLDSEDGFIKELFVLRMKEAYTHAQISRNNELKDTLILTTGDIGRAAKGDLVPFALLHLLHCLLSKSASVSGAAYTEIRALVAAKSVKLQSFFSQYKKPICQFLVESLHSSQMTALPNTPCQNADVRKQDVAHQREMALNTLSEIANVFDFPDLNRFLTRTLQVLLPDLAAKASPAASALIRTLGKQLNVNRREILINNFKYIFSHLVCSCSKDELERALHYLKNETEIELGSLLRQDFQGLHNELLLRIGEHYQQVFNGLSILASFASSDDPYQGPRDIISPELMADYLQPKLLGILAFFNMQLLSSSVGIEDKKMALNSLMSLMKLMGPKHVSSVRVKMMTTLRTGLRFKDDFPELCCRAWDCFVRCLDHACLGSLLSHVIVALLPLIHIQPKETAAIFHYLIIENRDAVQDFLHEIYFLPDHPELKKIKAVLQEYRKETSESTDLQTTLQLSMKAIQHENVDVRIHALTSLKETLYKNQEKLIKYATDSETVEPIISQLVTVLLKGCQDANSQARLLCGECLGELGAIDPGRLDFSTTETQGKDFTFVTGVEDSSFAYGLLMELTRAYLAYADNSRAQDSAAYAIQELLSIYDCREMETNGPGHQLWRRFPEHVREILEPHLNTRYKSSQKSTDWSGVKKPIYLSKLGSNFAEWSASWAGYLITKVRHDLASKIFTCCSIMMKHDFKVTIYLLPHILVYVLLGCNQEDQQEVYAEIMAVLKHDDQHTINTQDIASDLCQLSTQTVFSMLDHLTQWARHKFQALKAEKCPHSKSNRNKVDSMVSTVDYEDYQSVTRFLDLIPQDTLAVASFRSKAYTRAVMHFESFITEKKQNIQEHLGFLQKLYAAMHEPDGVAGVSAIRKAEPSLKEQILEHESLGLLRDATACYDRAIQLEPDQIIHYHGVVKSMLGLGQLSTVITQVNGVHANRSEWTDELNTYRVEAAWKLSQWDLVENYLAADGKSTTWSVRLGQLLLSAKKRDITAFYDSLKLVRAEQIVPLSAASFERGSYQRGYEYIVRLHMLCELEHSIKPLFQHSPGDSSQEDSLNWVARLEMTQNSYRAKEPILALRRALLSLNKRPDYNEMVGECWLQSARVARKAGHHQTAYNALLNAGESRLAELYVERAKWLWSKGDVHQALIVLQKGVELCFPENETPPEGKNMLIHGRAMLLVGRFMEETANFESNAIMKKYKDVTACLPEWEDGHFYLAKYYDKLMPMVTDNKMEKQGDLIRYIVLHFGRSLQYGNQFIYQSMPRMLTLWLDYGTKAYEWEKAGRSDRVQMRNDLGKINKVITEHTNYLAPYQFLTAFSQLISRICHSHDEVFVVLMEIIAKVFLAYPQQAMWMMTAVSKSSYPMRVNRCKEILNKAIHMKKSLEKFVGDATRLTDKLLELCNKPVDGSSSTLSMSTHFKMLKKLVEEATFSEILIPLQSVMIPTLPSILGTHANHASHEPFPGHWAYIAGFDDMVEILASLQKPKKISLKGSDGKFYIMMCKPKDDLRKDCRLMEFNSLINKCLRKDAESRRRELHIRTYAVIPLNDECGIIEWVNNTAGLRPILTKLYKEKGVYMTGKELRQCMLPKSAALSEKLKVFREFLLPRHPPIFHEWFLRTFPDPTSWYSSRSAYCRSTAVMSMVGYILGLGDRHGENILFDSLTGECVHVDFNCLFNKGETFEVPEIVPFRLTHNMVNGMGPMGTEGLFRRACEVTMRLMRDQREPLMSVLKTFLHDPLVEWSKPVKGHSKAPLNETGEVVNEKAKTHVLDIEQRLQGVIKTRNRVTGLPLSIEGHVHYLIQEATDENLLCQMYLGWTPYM
ATR kinase, sequence (Q8WXE1 whole entry partner): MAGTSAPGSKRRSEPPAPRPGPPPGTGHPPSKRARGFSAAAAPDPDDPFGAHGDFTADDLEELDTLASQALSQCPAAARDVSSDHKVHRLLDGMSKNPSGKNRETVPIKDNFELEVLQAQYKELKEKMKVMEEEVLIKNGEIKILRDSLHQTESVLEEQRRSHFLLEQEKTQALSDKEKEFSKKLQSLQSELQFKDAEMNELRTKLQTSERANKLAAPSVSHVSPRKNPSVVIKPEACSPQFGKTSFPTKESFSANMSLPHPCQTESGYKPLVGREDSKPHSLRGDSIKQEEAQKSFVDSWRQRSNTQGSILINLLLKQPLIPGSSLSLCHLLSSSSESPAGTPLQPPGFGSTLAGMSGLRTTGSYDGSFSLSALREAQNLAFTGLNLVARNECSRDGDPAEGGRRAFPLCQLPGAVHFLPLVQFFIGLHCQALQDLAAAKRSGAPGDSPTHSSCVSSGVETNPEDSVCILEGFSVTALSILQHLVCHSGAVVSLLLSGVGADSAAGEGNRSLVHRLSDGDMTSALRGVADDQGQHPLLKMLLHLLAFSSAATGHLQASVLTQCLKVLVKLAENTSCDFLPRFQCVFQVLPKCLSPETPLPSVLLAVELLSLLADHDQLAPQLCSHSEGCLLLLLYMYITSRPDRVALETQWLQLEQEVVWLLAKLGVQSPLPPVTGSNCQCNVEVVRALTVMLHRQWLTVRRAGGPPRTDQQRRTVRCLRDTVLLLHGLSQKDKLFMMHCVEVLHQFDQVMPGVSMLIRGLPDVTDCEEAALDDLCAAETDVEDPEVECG

In the case of `C[C@@H]1COCCN1c1nc(-c2cc(Cl)cc3[nH]ccc23)nc2c1ccn2S(C)(=O)=O` [Compound 31, (R)-4-(2-(6-chloro-1H-indol-4-yl)-7-(methylsulfonyl)-7H-pyrrolo[2,3-d]pyrimidin-4-yl)-3-methylmorpholine], the Emax in experiment [1] turned out to be 93%. At ATR kinase, the half-maximal inhibitory concentration (IC50) turned out to be 4.4 nM.
The like results for `COc1cc(-c2nc(N3CCOC[C@H]3C)c3ccn(S(C)(=O)=O)c3n2)c2cc[nH]c2c1` [Compound 32, (R)-4-(2-(6-methoxy-1H-indol-4-yl)-7-(methylsulfonyl)-7H-pyrrolo[2,3-d]pyrimidin-4-yl)-3-methylmorpholine] were, in that order, 95% and 5.3 nM.
For `CCS(=O)(=O)n1ccc2c(N3CCOC[C@H]3C)nc(-c3ccnc4[nH]ccc34)nc21` [Compound 33, (R)-4-(7-(ethylsulfonyl)-2-(1H-pyrrolo[2,3-b]pyridin-4-yl)-7H-pyrrolo[2,3-d]pyrimidin-4-yl)-3-methylmorpholine] the same measures were 92% and 5 nM.
In the case of `C[C@@H]1COCCN1c1nc(-c2ccnc3[nH]ccc23)nc2c1ccn2S(=O)(=O)N(C)C` [Compound 34, (R)-N,N-dimethyl-4-(3-methylmorpholinyl)-2-(1H-pyrrolo[2,3-b]pyridin-4-yl)-7H-pyrrolo[2,3-d]pyrimidine-7-sulfamide], in experiment [1], the IC50 worked out at 290 nM and the “Max Inhibition” value was 93%. The IC50 at ATR kinase was 7.1 nM.
